Tests used:
VIOTR [1] = assay: Post-emergence herbicidal action against VIOTR; type: in vivo, Viola tricolor; settings: Viola tricolor, 504 h
Procedure, shortened: (§1)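 Herbicidal effect was scored visually in percent after about 3 weeks in the greenhouse. Plants had been raised in sandy loam and treated post-emergence at the one-leaf stage with formulated compound at 600 to 800 l/ha water plus 0.2% wetting agent.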

VERPE = assay: Pre-emergence herbicidal action against VERPE; type: in vivo, Veronica persica; settings: Veronica persica, 504 h; for pest or weed control at 80 g/ha: dosage 80 g/ha
Procedure, shortened: (§2)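 Herbicidal effect was assessed 3 weeks after treatment by visual comparison with untreated controls, 100% denoting dead plants. Aqueous WP or EC preparations had been applied at 600 to 800 l/ha with 0.2% wetting agent to the soil covering freshly sown seeds.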

DIGSA = assay: Pre-emergence herbicidal action against DIGSA; type: in vivo, Digitaria sanguinalis; settings: Digitaria sanguinalis, 504 h, dosage 80 g/ha
Procedure, shortened: as §2

MATIN = assay: Pre-emergence herbicidal action against MATIN; type: in vivo, Matricaria inodora; settings: Tripleurospermum inodorum, 504 h; for pest or weed control at 20 g/ha: dosage 20 g/ha; for pest or weed control at 80 g/ha: dosage 80 g/ha
Procedure, shortened: as §2

VIOTR [2] = assay: Pre-emergence herbicidal action against VIOTR; type: in vivo, Viola tricolor; settings: Viola tricolor, 504 h; for pest or weed control at 80 g/ha: dosage 80 g/ha
Procedure, shortened: as §2

POLCO = assay: Pre-emergence herbicidal action against POLCO; type: in vivo, Polygonum convolvulus; settings: Fallopia convolvulus, 504 h
Procedure, shortened: as §2

AMARE [3] = assay: Post-emergence herbicidal action against AMARE; type: in vivo, Amaranthus retroflexus; settings: Amaranthus retroflexus, 504 h, 20 g/ha, visual assessment about 3 weeks after treatment, 100% = plants have died, 0% = like control plants
Procedure, shortened: as §1

AMARE [4] = assay: Pre-emergence herbicidal action against AMARE; type: in vivo, Amaranthus retroflexus; settings: Amaranthus retroflexus, 504 h, scored visually after 3 weeks vs untreated controls, 100% = plants have died, 0% = like control plants
Procedure, shortened: as §2

STEME = assay: Pre-emergence herbicidal action against STEME; type: in vivo, Stellaria media; settings: Stellaria media, 504 h, dosage 80 g/ha
Description: Seeds of monocotyledonous and dicotyledonous weed plants and crop plants are laid out in sandy loam soil in wood-fiber pots and covered with soil. The compounds of the invention, formulated in the form of wettable powders (WP) or as emulsion concentrates (EC), are then applied to the surface of the covering soil in the form of an aqueous suspension or emulsion at a water application rate equivalent to 600 to 800 l/ha, with addition of 0.2% wetting agent. After the treatment, the pots are placed in a greenhouse and kept under good growth conditions for the trial plants. The damage to the test plants is scored visually after a test period of 3 weeks by comparison with untreated controls (herbicidal activity in percent (%): 100% activity=the plants have died, 0% activity=like control plants). […] The tables below illustrate, in an illustrative manner, the post-emergence herbicidal action of the compounds of the invention, the herbicidal activity being stated in percent.

ABUTH [5] = assay: Post-emergence herbicidal action against ABUTH; type: in vivo, Abutilon theophrasti; settings: Abutilon theophrasti, 504 h, dosage 20 g/ha, visual assessment about 3 weeks after treatment vs untreated controls
Procedure, shortened: as §1

ABUTH [6] = assay: Pre-emergence herbicidal action against ABUTH; type: in vivo, Abutilon theophrasti; settings: Abutilon theophrasti, 504 h, 80 g/ha, scored visually after 3 weeks vs untreated controls (100% = plants have died, 0% = like control plants)
Procedure, shortened: as §2

ECHCG = assay: Pre-emergence herbicidal action against ECHCG; type: in vivo, Echinochloa crus-galli; settings: Echinochloa crus-galli, 504 h, 80 g/ha
Procedure, shortened: as §2

ALOMY [7] = assay: Post-emergence herbicidal action against ALOMY; type: in vivo, Alopecurus myosuroides; settings: Alopecurus myosuroides, 504 h, dosage 20 g/ha, visual assessment about 3 weeks after treatment vs untreated controls
Procedure, shortened: as §1

SETVI [8] = assay: Post-emergence herbicidal action against SETVI; type: in vivo, Setaria viridis; settings: Setaria viridis, 504 h
Procedure, shortened: as §1

ALOMY [9] = assay: Pre-emergence herbicidal action against ALOMY; type: in vivo, Alopecurus myosuroides; settings: Alopecurus myosuroides, 504 h; 80 g/ha, pre-emergence, scored visually after 3 weeks vs untreated controls (100% = plants have died, 0% = like control plants)
Procedure, shortened: as §2

AVEFA [10] = assay: Pre-emergence herbicidal action against AVEFA; type: in vivo, Avena fatua; settings: Avena fatua, 504 h, pre-emergence
Procedure, shortened: as §2

SETVI [11] = assay: Pre-emergence herbicidal action against SETVI; type: in vivo, Setaria viridis; settings: Setaria viridis, 504 h, dosage 80 g/ha
Procedure, shortened: as §2

AVEFA [12] = assay: Post-emergence herbicidal action against AVEFA; type: in vivo, Avena fatua; settings: Avena fatua, 504 h, 20 g/ha, visual assessment about 3 weeks after treatment, 100% = plants have died, 0% = like control plants
Description: Seeds of monocotyledonous and dicotyledonous weed and crop plants are laid out in sandy loam soil in wood-fiber pots, covered with soil and cultivated in a greenhouse under good growth conditions. 2 to 3 weeks after sowing, the test plants are treated at the one-leaf stage. The compounds of the invention, formulated in the form of wettable powders (WP) or as emulsion concentrates (EC), are then sprayed onto the green parts of the plants in the form of an aqueous suspension or emulsion at a water application rate equivalent to 600 to 800 l/ha, with addition of 0.2% wetting agent. After the test plants have been left to stand in the greenhouse under optimal growth conditions for about 3 weeks, the action of the preparations is assessed visually in comparison to untreated controls (herbicidal action in percent (%): 100% activity=the plants have died, 0% activity=like control plants). […] The tables below illustrate, in an illustrative manner, the post-emergence herbicidal action of the compounds of the invention, the herbicidal activity being stated in percent.

SMILES | pest or weed control at 20 g/ha (VIOTR [1]) | pest or weed control at 80 g/ha (VERPE) | pest or weed control at 80 g/ha (DIGSA) | pest or weed control at 20 g/ha (MATIN) | pest or weed control at 80 g/ha (MATIN) | pest or weed control at 80 g/ha (VIOTR [2]) | pest or weed control at 20 g/ha (AMARE [3]) | pest or weed control at 20 g/ha (AMARE [4]) | pest or weed control at 80 g/ha (AMARE [4]) | pest or weed control at 80 g/ha (STEME) | pest or weed control at 20 g/ha (ABUTH [5]) | pest or weed control at 80 g/ha (ABUTH [6]) | also measured
Cn1nnnc1NC(=O)c1ccc(S(C)(=O)=O)c(C(=O)NC2CC2)c1Cl [Example 1-125] | 100% | 80% | 90% | 80% | 100% | 100% | 80% | 90% | 100% | 100% | – | – | pest or weed control at 5 g/ha (VIOTR [1]; 5 g/ha): 100%; pest or weed control at 20 g/ha (VERPE; dosage 20 g/ha): 80%; pest or weed control at 20 g/ha (POLCO; dosage 20 g/ha): 80%; pest or weed control at 80 g/ha (POLCO; dosage 80 g/ha): 80%
CNC(=O)c1c(S(C)(=O)=O)ccc(C(=O)Nc2nnnn2C)c1Cl [Example 1-123] | 100% | – | 90% | 80% | 100% | 80% | 80% | 80% | 100% | 90% | 80% | 100% | –
CCn1nnnc1NC(=O)c1ccc(Cl)c(C(=O)NC2CC2)c1Br [Example 2-349] | 80% | 80% | – | 90% | 100% | 100% | 100% | 100% | 100% | – | 80% | 100% | pest or weed control at 80 g/ha (ECHCG): 90%; pest or weed control at 20 g/ha (VIOTR [2]; dosage 20 g/ha): 90%; pest or weed control at 20 g/ha (ALOMY [7]): 80%; pest or weed control at 5 g/ha (SETVI [8]; dosage 5 g/ha): 90%; pest or weed control at 20 g/ha (SETVI [8]; dosage 20 g/ha): 100%; pest or weed control at 80 g/ha (ALOMY [9]): 100%; pest or weed control at 80 g/ha (AVEFA [10]; 80 g/ha): 100%; pest or weed control at 20 g/ha (AVEFA [10]; 20 g/ha, scored visually after 3 weeks, 100% = plants have died, 0% = like control plants): 90%; pest or weed control at 80 g/ha (SETVI [11]): 100%; pest or weed control at 20 g/ha (AVEFA [12]): 90%
